Assay results published in patent publication US10947216B2, “Amide compounds and method for making and using” (Rigel Pharmaceuticals, Inc., priority 2016, dated 2021).
Structures can show the parent of a compound that is named as a salt. Where two headings read alike, the source gives them in different places.

Columns and labels:
IL-23p19 = experiment: LPS Induced IL23p19 in THP-1 Cells (with IFNγ Primed) Assay; assay type: cell-based, human; conditions: Homo sapiens, IFNγ (50 ng/mL) primed, 1 hour compound pre-incubation, LPS 1 ug/mL 18 hours, 10 pt, read-out: IL23-p19 ELISA, THP1-IFNy, LPS, 10 pt EC50
Summary of the method: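 THP-1 cells (50K/well) primed ~18 h with IFNγ (50 ng/mL) in RPMI/10% FBS, then incubated with compound in duplicate for 18 h at 37° C. Supernatant IL-23p19 measured by chemiluminescent sandwich ELISA, giving EC50 by curve fitting. Toxicity assessed in parallel on the remaining cells by Cell Titer Glo.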

IL-23 (p19/p40) = experiment: IL23-p19 ELISA, dendritic cells (DC differentiated from human PBMC, IFNγ primed), LPS stimulated; assay type: cell-based; conditions: Dendritic cell, human PBMC-derived dendritic cells, 1 h compound pre-incubation, LPS 1 μg/ml 18 hours, 10 pt
Summary of the method: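 PBMC-derived DCs (GM-CSF 100 ng/ml + IL-4 20 ng/ml, 7 days) primed 24 h with IFNγ 50 ng/ml, 50K cells/well; compound pre-incubated 1 h at 37° C, then LPS, 18 h. Supernatant IL-23 by p19-capture/p40-detection chemiluminescent ELISA; cytotoxicity by Cell Titer Glo.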

Row | Structure (SMILES) | EC50 (IL-23p19; THP-1, THP-1 cells) | EC50 (IL-23 (p19/p40)) | EC50 (IL-23p19; THP-1 cells) | EC50 (IL-23 (p19/p40); Homo sapiens)
1 | CC(=O)Nc1ccc(-c2cccc(C(=O)Nc3cn(C)nc3-c3cnccn3)n2)cn1 [Compound I-102, 6′-acetamido-N-(1-methyl-3-(pyrazin-2-yl)-1H-pyrazol-4-yl)-[2,3′-bipyridine]-6-carboxamide] | 26.7 µM | 2.04 µM | – | –
2 | O=C(Nc1cn(C2COC2)nc1-c1ccccn1)c1cccc(Br)n1 [Compound I-113, 6-bromo-N-(1-(oxetan-3-yl)-3-(pyridin-2-yl)-1H-pyrazol-4-yl)picolinamide] | 8.04 µM | 10.9 µM | – | –
3 | CS(=O)(=O)Nc1cncc(-c2cccc(C(=O)Nc3cn(C4COC4)nc3-c3ccccn3)n2)c1 [Compound I-115, 5′-(methylsulfonamido)-N-(1-(oxetan-3-yl)-3-(pyridin-2-yl)-1H-pyrazol-4-yl)-[2,3′-bipyridine]-6-carboxamide] | 2.18 µM | 7.65 µM | – | –
4 | CS(=O)(=O)Nc1cncc(-c2cccc(C(=O)Nc3cn(C4COC4)nc3-c3ccccn3)n2)c1 [Compound I-119, sodium (methylsulfonyl)(6-((1-(oxetan-3-yl)-3-(pyridin-2-yl)-1H-pyrazol-4-yl)carbamoyl)-[2,3′-bipyridine]-5′-yl)amide] | – | – | 1.02 µM | 1 µM
5 | Cc1cncc(-c2ccnc(C(=O)Nc3cn(C)nc3-c3ccccn3)n2)c1 [Compound I-120, N-(1-methyl-3-(pyridin-2-yl)-1H-pyrazol-4-yl)-4-(5-methylpyridin-3-yl)pyrimidine-2-carboxamide] | 46.9 µM | 2.99 µM | – | –
6 | Cc1cncc(-c2cncc(C(=O)Nc3cn(C)nc3-c3ccccn3)n2)c1 [Compound I-121, N-(1-methyl-3-(pyridin-2-yl)-1H-pyrazol-4-yl)-6-(5-methylpyridin-3-yl)pyrazine-2-carboxamide] | 1.07 µM | 1.81 µM | – | –
7 | Cn1cc(NC(=O)c2cncc(-c3cn[nH]c3)n2)c(-c2ccccn2)n1 [Compound I-122, N-(1-methyl-3-(pyridin-2-yl)-1H-pyrazol-4-yl)-6-(1H-pyrazol-4-yl)pyrazine-2-carboxamide] | 0.873 µM | 3.78 µM | – | –
8 | Cn1cc(NC(=O)c2cncc(-c3cc[nH]n3)n2)c(-c2ccccn2)n1 [Compound I-123, N-(1-methyl-3-(pyridin-2-yl)-1H-pyrazol-4-yl)-6-(1H-pyrazol-3-yl)pyrazine-2-carboxamide] | 0.921 µM | 0.738 µM | – | –
9 | Cn1cc(NC(=O)c2nccc(-c3cn[nH]c3)n2)c(-c2ccccn2)n1 [Compound I-124, N-(1-methyl-3-(pyridin-2-yl)-1H-pyrazol-4-yl)-4-(1H-pyrazol-4-yl)pyrimidine-2-carboxamide] | 6.64 µM | 1.54 µM | – | –
10 | O=C(Nc1cn(C2COC2)nc1-c1ccccn1)c1cccc(-c2cncc(F)c2)n1 [Compound I-131, 5′-fluoro-N-(1-(oxetan-3-yl)-3-(pyridin-2-yl)-1H-pyrazol-4-yl)-[2,3′-bipyridine]-6-carboxamide] | 6.62 µM | 12.8 µM | – | –
11 | O=C(Nc1cn(C2COC2)nc1-c1ccccn1)c1cccc(-c2cncc(C(F)(F)F)c2)n1 [Compound I-132, N-(1-(oxetan-3-yl)-3-(pyridin-2-yl)-1H-pyrazol-4-yl)-5′-(trifluoromethyl)-[2,3′-bipyridine]-6-carboxamide] | 54.9 µM | 7.77 µM | – | –
12 | NC(=O)c1cncc(-c2cccc(C(=O)Nc3cn(C4COC4)nc3-c3ccccn3)n2)c1 [Compound I-133, N6-(1-(oxetan-3-yl)-3-(pyridin-2-yl)-1H-pyrazol-4-yl)-[2,3′-bipyridine]-5′,6-dicarboxamide] | 11.1 µM | 6.54 µM | – | –
13 | Cc1cc(-c2cccc(C(=O)Nc3cn(C4COC4)nc3-c3ccccn3)n2)[nH]n1 [Compound I-136, 6-(3-methyl-1H-pyrazol-5-yl)-N-(1-(oxetan-3-yl)-3-(pyridin-2-yl)-1H-pyrazol-4-yl)picolinamide] | 0.469 µM | 0.198 µM | – | –
14 | Cn1cc(NC(=O)c2ccnc(-c3cn[nH]c3)n2)c(-c2ccccn2)n1 [Compound I-137, N-(1-methyl-3-(pyridin-2-yl)-1H-pyrazol-4-yl)-2-(1H-pyrazol-4-yl)pyrimidine-4-carboxamide] | 4.01 µM | 5.06 µM | – | –
15 | Cn1cc(NC(=O)c2ccnc(-c3cc[nH]n3)n2)c(-c2ccccn2)n1 [Compound I-138, N-(1-methyl-3-(pyridin-2-yl)-1H-pyrazol-4-yl)-2-(1H-pyrazol-3-yl)pyrimidine-4-carboxamide] | 29.4 µM | 1.18 µM | – | –

Continued, in another order:

Row | EC50 (IL-23p19; THP-1, THP-1 cells) | EC50 (IL-23 (p19/p40)) | Structure (SMILES) | EC50 (IL-23p19; THP-1 cells) | EC50 (IL-23 (p19/p40); Homo sapiens)
16 | 5.96 µM | 4.92 µM | O=C(Nc1cn(CCO)nc1-c1ccccn1)c1cccc(-c2ccncc2)n1 [Compound I-108, N-(1-(2-hydroxyethyl)-3-(pyridin-2-yl)-1H-pyrazol-4-yl)-[2,4′-bipyridine]-6-carboxamide formate] | – | –
17 | 0.325 µM | 1.28 µM | O=C(Nc1cn(C2COC2)nc1-c1ccccn1)c1cccc(-c2cccnc2)n1 [Compound I-112, N-(1-(oxetan-3-yl)-3-(pyridin-2-yl)-1H-pyrazol-4-yl)-[2,3′-bipyridine]-6-carboxamide] | – | –
18 | 1.76 µM | 2.33 µM | Cc1cncc(-c2cccc(C(=O)Nc3cn(C4COC4)nc3-c3ccccn3)n2)c1 [Compound I-114, 5′-methyl-N-(1-(oxetan-3-yl)-3-(pyridin-2-yl)-1H-pyrazol-4-yl)-[2,3′-bipyridine]-6-carboxamide] | – | –
19 | 0.212 µM | 0.142 µM | O=C(Nc1cn(C2COC2)nc1-c1ccccn1)c1cccc(-c2cn[nH]c2)n1 [Compound I-116, N-(1-(oxetan-3-yl)-3-(pyridin-2-yl)-1H-pyrazol-4-yl)-6-(1H-pyrazol-4-yl)picolinamide] | – | –
20 | 0.156 µM | 0.1 µM | O=C(Nc1cn(C2COC2)nc1-c1ccccn1)c1cccc(-c2cc[nH]n2)n1 [Compound I-117, N-(1-(oxetan-3-yl)-3-(pyridin-2-yl)-1H-pyrazol-4-yl)-6-(1H-pyrazol-3-yl)picolinamide] | – | –
21 | 1.26 µM | 2.21 µM | Cn1cc(-c2cccc(C(=O)Nc3cn(C4COC4)nc3-c3ccccn3)n2)cn1 [Compound I-134, 6-(1-methyl-1H-pyrazol-4-yl)-N-(1-(oxetan-3-yl)-3-(pyridin-2-yl)-1H-pyrazol-4-yl)picolinamide] | – | –
22 | 8.43 µM | 2.83 µM | COCCOCCn1cc(NC(=O)c2cccc(-c3ccnc(OC)c3)n2)c(-c2ccccn2)n1 [Compound I-141, 2′-methoxy-N-(1-(2-(2-methoxyethoxy)ethyl)-3-(pyridin-2-yl)-1H-pyrazol-4-yl)-[2,4′-bipyridine]-6-carboxamide formate] | – | –
23 | 0.761 µM | 2.54 µM | COCCOCCn1cc(NC(=O)c2cccc(-c3ccc(N)nc3)n2)c(-c2ccccn2)n1 [Compound I-142, 6′-amino-N-(1-(2-(2-methoxyethoxy)ethyl)-3-(pyridin-2-yl)-1H-pyrazol-4-yl)-[2,3′-bipyridine]-6-carboxamide formate] | – | –
24 | 4.24 µM | 5.9 µM | COCCOCCn1cc(NC(=O)c2cccc(-c3ccnc(C)c3)n2)c(-c2ccccn2)n1 [Compound I-146, N-(1-(2-(2-methoxyethoxy)ethyl)-3-(pyridin-2-yl)-1H-pyrazol-4-yl)-2′-methyl-[2,4′-bipyridine]-6-carboxamide formate] | – | –
25 | 41.1 µM | 10.7 µM | COCCOCCn1cc(NC(=O)c2cccc(-c3cc4ccc(OC)cc4[nH]3)n2)c(-c2ccccn2)n1 [Compound I-147, 6-(6-methoxy-1H-indol-2-yl)-N-(1-(2-(2-methoxyethoxy)ethyl)-3-(pyridin-2-yl)-1H-pyrazol-4-yl)picolinamide formate] | – | –
26 | 4.5 µM | 6.28 µM | COCCOCCn1cc(NC(=O)c2cccc(-c3cnn(-c4cccc(Cl)c4)c3)n2)c(-c2ccccn2)n1 [Compound I-148, 6-(1-(3-chiorophenyl)-1H-pyrazol-4-yl)-N-(1-(2-(2-methoxyethoxy)ethyl)-3-(pyridin-2-yl)-1H-pyrazol-4-yl)picolinamide formate] | – | –
27 | 1.2 µM | 1.42 µM | COCCOCCn1cc(NC(=O)c2cccc(-c3cncc(C)c3)n2)c(-c2ccccn2)n1 [Compound I-149, N-(1-(2-(2-methoxyethoxy)ethyl)-3-(pyridin-2-yl)-1H-pyrazol-4-yl)-5′-methyl-[2,3′-bipyridine]-6-carboxamide formate] | – | –
28 | 3.39 µM | 0.0662 µM | COCCOCCn1cc(NC(=O)c2cccc(-c3cc[nH]n3)n2)c(-c2ccccn2)n1 [Compound I-150, N-(1-(2-(2-methoxyethoxy)ethyl)-3-(pyridin-2-yl)-1H-pyrazol-4-yl)-6-(1H-pyrazol-3-yl)picolinamide formate] | – | –
29 | 7.88 µM | 4.12 µM | COCCOCCn1cc(NC(=O)c2cccc(-c3ccoc3)n2)c(-c2ccccn2)n1 [Compound I-151, 6-(furan-3-yl)-N-(1-(2-(2-methoxyethoxy)ethyl)-3-(pyridin-2-yl)-1H-pyrazol-4-yl)picolinamide 2,2,2-trifluoroacetate] | – | –
30 | 12.4 µM | 14.2 µM | COCCOCCn1cc(NC(=O)c2cccc(-c3ccco3)n2)c(-c2ccccn2)n1 [Compound I-152, 6-(furan-2-yl)-N-(1-(2-(2-methoxyethoxy)ethyl)-3-(pyridin-2-yl)-1H-pyrazol-4-yl)picolinamide 2,2,2-trifluoroacetate] | – | –
